Measured values reported in patent US20210196779A1, “Compositions and Methods for Treating Steroid Hormone-Related Diseases or Disorders” (YALE UNIVERSITY, priority 2018, published 2021).

Key:
Assay type in all cases: cell-based
[1] = test system: LNCaP-GR (GR overexpressing) cells; test: Cell growth assay, GR overexpressing LNCaP cells; conditions: DEX stimulated
Description: (§1) 20,000 cells in 1 ml of medium (phenol red free RPMI1640, 5% charcoal-dialysis FBS, 50 μg/ml Kanamyacin) were seeded per well of a 24-well plate and incubated in a 37° C. incubator with 5% CO2 overnight. Different concentrations of herbal extract were added to each well in order to have final concentrations from 50 μg/ml to 500 μg/ml. […] For glucocorticoid receptor overexpressed LNCaP cells, dexamethasone (50 nM) was used to stimulate glucocorticoid receptor activity. For all breast cancer cells, E2 (10 nM) was used to stimulate ER activity. Control medium without any steroid hormone was used as a control setting. After 4 days of incubation, cells were fixed and stained for 2 h with 0.5% methylene blue in 50% ethanol, followed by washing with tap water to remove unbound dye. Plates were air dried and then cells were dissolved in 1% sarkosyl (sodium lauroyl sarcosinate) by shaking at room temperature for 3 h. […] All experiments were performed in triplicate wells and were repeated at least three times.

GR (stimulated with DEX) = target: T1, GR (stimulated with DEX) (Homo sapiens, UniProt P04150); test: GR driven luciferase activity (DEX) in LNCaP-GR cells; conditions: LNCaP-GR luciferase reporter cells
T1 construct: expressed in transfected cells; host or cells: LNCaP (LNCaP-GR)
T1 sequence (P04150 whole entry): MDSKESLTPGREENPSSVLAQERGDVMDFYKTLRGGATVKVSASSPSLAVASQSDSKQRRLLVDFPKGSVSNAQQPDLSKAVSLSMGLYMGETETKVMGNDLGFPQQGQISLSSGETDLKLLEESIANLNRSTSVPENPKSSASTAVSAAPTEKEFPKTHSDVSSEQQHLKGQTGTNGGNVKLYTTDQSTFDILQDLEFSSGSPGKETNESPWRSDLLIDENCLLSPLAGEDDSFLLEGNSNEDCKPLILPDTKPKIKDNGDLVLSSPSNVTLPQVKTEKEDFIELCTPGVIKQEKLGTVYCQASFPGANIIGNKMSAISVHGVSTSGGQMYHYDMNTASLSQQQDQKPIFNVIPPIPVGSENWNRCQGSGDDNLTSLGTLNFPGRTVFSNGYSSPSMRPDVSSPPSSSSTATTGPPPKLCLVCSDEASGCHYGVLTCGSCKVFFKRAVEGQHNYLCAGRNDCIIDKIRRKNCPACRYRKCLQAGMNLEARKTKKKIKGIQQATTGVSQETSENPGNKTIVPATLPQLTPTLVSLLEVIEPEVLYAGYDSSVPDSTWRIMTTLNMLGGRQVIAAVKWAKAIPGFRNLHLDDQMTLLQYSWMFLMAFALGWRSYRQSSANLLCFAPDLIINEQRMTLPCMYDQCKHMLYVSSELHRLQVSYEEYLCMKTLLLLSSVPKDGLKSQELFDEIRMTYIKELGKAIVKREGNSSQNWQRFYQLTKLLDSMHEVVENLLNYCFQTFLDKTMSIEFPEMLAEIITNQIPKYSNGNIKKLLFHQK
Description: Both LNCaP and GR overexpressing LNCaP cells were carrying luciferase reporters with AR response elements.
(§2) Reporter cells were treated with herbal extracts at 30, 100, 300, and 1000 μg/ml for 24 h in a 37° C.-CO2 incubator. DHT (25 nM) was used to stimulate androgen receptor activity. Dexamethasone (50 nM) was used to stimulate glucocorticoid receptor activity Cells were lysed using luciferase lysis buffer after which luciferase buffer with luciferin was added to generate luminescence. Luminescence was recorded using a luminescence microplate reader.

LNCaP cells = test: Cell growth assay, LNCaP prostate cancer cells
Description: (§3) 22RV1 or LNCaP prostate cancer cells were grown in corning T75 cell culture flasks in RPMI1640 medium supplemented with 5% FBS, 50 μg/ml Kanamycin in a 37° C., 5% CO2 incubator.
as §1

22Rv1 cells = test: Cell growth assay, 22Rv1 prostate cancer cells; conditions: in the presence or absence of DHT and DEX
Description: as §3, §1

androgen receptor (AR) = test: PSA-luciferase reporter assay, DHT induced, 22RV1 cells; conditions: equivalent doses, 22RV1 cells in the presence of DHT
Description: 22RV1 or LNCaP prostate cancer cells were used in the screening study. 22RV1 or LNCaP cell lines were stably transfected with PSA promoter-PGL4.2 luciferase reporter. DHT (25 nM) was used to stimulate androgen receptor activity for 24 h.
as §2

| SMILES | resistance of LNCaP-GR cell growth (in words) [1] | inhibition of DEX induced transcriptional response (GR (stimulated with DEX)) | susceptibility of LNCaP cell growth to treatment (in words) (LNCaP cells; in the absence of DHT) | sensitivity of LNCaP cell growth to treatment (in words) (LNCaP cells; in the presence of DHT) | growth inhibitory effect on 22RV1 cells (in words) (22Rv1 cells) | inhibitory effect on AR mediated transcriptional response (androgen receptor (AR)) |
| --- | --- | --- | --- | --- | --- | --- |
| CNC(=O)c1ccc(N2C(=S)N(c3ccc(C#N)c(C(F)(F)F)c3)C(=O)C2(C)C)cc1F [Enzalutamide, reference compound] | resistant | but not DEX induced transcriptional response | not be susceptible | more sensitive | resistant |  |
| Cc1c(O)cc2c(c1O)C(=O)c1ccc(O)cc1C2=O [TMT, 1,3,6-Trihydroxy-2-methyl-9,10-anthracenedione] |  |  |  |  |  | very weak activity |
